Data set [1] in a line: Ratio of free drug level from brain to plasma concentration in rat at 0.05 mg/kg, iv after 5 mins. The arrangement: dose 0.05 mg/kg, route intravenous. It counts as ADME, organism-based. Particulars: read-out: BPR.
Data set [2] in a line: Plasma concentration in rat at 0.05 mg/kg, iv after 3 mins. It is filed as ADME, organism-based. The arrangement: dose 0.05 mg/kg, route intravenous.
A short description of data set [3]: Plasma concentration in rat at 0.05 mg/kg, iv after 5 mins. It counts as ADME, organism-based. The arrangement: dose 0.05 mg/kg, route intravenous.
A short description of data set [4]: Ratio of free drug level from brain to plasma concentration in rat at 0.05 mg/kg, iv after 3 mins. It is filed as ADME, organism-based. More on the design: dose 0.05 mg/kg, route intravenous. The note with it: read-out: BPR.
Data set [5] has as its system Nucleic Acid. The data set can be described thus: Ratio of drug level from hippocampus to cerebellum in rat at 0.05 mg/kg, iv after 5 mins. It counts as ADME, organism-based. More on the design: dose 0.05 mg/kg, route intravenous. Particulars: in vivo.
The subject of data set [6] is Nucleic Acid. The data set can be described thus: Ratio of drug level from striatum to cerebellum in rat brain at 0.05 mg/kg, iv after 40 mins. It is filed as ADME, organism-based. More on the design: dose 0.05 mg/kg, route intravenous. The note with it: in vivo.
Data set [7] concerns Nucleic Acid. The data set can be described thus: Ratio of drug level from cortex to cerebellum in rat at 0.05 mg/kg, iv after 40 mins. The note with it: in vivo. The arrangement: dose 0.05 mg/kg, route intravenous. It counts as ADME, organism-based.
Data set [8] relates to Nucleic Acid. The data set can be described thus: Ratio of drug level from hippocampus to cerebellum in rat at 0.05 mg/kg, iv after 40 mins. It is filed as ADME, organism-based. The arrangement: dose 0.05 mg/kg, route intravenous. Particulars: in vivo.
The subject of data set [9] is Nucleic Acid. The data set can be described thus: Ratio of drug level from cortex to cerebellum in rat at 0.05 mg/kg, iv after 5 mins. It is filed as ADME, organism-based. More on the design: dose 0.05 mg/kg, route intravenous. Particulars: in vivo.
Data set [10] concerns Nucleic Acid. The data set can be described thus: Ratio of drug level from striatum to cerebellum in rat brain at 0.05 mg/kg, iv after 5 mins. The note with it: in vivo. The arrangement: dose 0.05 mg/kg, route intravenous. It counts as ADME, organism-based.
Data set [11] addresses 5-hydroxytryptamine receptor 2A (Homo sapiens, UniProt P28223). The data set can be described thus: Displacement of [125I]-R-O-DOI from human 5-HT2A receptor expressed in CHO-K1 cells by liquid scintillation spectrometry. It counts as cell-based.

Sequence of 5-hydroxytryptamine receptor 2A (P28223 whole entry): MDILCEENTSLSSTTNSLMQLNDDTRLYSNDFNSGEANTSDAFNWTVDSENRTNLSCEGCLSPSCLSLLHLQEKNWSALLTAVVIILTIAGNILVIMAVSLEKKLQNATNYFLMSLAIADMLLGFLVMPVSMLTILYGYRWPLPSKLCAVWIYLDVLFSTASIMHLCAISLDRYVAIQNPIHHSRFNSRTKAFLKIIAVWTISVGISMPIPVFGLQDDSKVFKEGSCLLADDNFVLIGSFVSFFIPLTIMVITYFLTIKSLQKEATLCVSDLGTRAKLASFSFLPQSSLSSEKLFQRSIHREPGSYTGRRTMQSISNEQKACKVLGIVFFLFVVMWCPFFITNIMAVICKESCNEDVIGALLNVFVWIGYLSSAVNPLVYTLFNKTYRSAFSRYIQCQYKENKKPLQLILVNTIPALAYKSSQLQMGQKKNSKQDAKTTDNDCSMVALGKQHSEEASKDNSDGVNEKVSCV

In the case of `CN1CCC(c2cccc3cc(S(=O)(=O)c4ccccn4)cnc23)CC1`, the Kp uu at 5 min in data set [1] amounted to 0.28. The same compound showed a concentration at 0.05 h in [2] of 104 ng/mL. This compound yielded a concentration at 5 min in [3] of 83.5 ng/mL. Besides, the Kp uu at 0.05 h in data set [4] came to 0.21.

As to `[3H]C([3H])([3H])N1CCC(c2cccc3cc(S(=O)(=O)c4ccccn4)cnc23)CC1`, the Ratio in the data set with Nucleic Acid [5] is reported as 1.06; in the data set with Nucleic Acid [6] it was 1.31; with Nucleic Acid [7], 1.2; in the data set on Nucleic Acid [8] it was 1.07; with Nucleic Acid [9], 0.9; with Nucleic Acid [10] it was 0.81.

As to `CN1CCN(c2cccc3cc(S(=O)(=O)c4cccc(F)c4)cnc23)CC1`, the Ki (in general, a dissociation constant, usually derived from enzyme kinetics or from competition with a known ligand) in data set [11] came out at 0.39 nM.

(Values after ChEMBL document CHEMBL3259709, “Quinoline Derivatives as 5-HT6 Receptor PET Ligands” (ACS Med Chem Lett, 2014).)
